Data reported in the supplement of paper PMC11208160.

Columns and labels:
[1] = recombinant barcode read abundance after kanamycin selection (control-corrected) (log10(CPM+1)); higher = more efficient recombination; sequences stand for … in AGTGCAGAGAAAATCGGCCAGTTTTCTCTGCCTGCAGTCCGCATGCCGT…ATTTATGCAGCGGACTGCCTTTCTCCCAAAGTGATAAACCGGACAGTATCATGGACCGGTTTTCCCGGTAATCCGTATTTGCAAGGTTGGTTTCACT; site = the 11-nt target
Experimental: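 Same pooled E. coli target screen (IS621 bridge recombinase, kanamycin selection, control-corrected CPM, mean of 2 biological replicates). Here the two core-binding nucleotides of the LTG and RTG of the bridge RNA target-binding loop are mutated. Target and donor CT cores are held constant, and the other 9 guide positions match the target. The target is read from the library oligo sequence. Molecule = full bridge RNA written as DNA: nt 1-80 from the library oligo, rest WT scaffold.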

[2] = recombinant barcode read abundance after kanamycin selection (control-corrected) (log10(CPM+1)); higher = more efficient recombination; sequences stand for … in AGTGCAGAGAAAATCGGCCAGTTTTCTCTGCCTGCAGTCCGCATGCCGT…AGATTTATGCAGCGGACTGCCTTTCTCCCAAAGTGATAAACCGGACAGTATCATGGACCGGTTTTCCCGGTAATCCGTATTTGCAAGGTTGGTTTCACT; site = the 11-nt target
Procedure, shortened: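 Duplicate cultures were plated either on chloramphenicol/ampicillin LB agar, serving as control, or on chloramphenicol/ampicillin/kanamycin with 0.1 mM IPTG. These came from a pooled E. coli library co-electroporated with a donor plasmid, each member pairing a target with an IS621 bridge RNA target-binding loop. Recombination efficiency equals averaged, control-corrected counts per million of recombinant-junction barcodes. It is listed as log10(CPM+1).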

Sequence | recombinant barcode read abundance (log10) [1] | recombinant barcode read abundance (log10) [2]
AAACACAAATGGGTTCTAACCTGTTGCCTAG [AAACACACTAG_LTGcore_AA_RTGcore_CT] (site AAACACACTAG) (LTG core: AA, RTG core: CT) | 0.0621 | –
AAACACAATTGGGTTCTAACCTGTTGCCTAG [AAACACACTAG_LTGcore_AT_RTGcore_CT] (site AAACACACTAG) (LTG core: AT, RTG core: CT) | 0.375 | –
AAACACACCTGGGTTCTAACCTGTTGCCTAG [AAACACACTAG_LTGcore_CC_RTGcore_CT] (site AAACACACTAG) (LTG core: CC, RTG core: CT) | 0.633 | –
AAACACACGTGGGTTCTAACCTGTTGCCTCG [AAACACACTAG_LTGcore_CG_RTGcore_CG] (site AAACACACTAG) (LTG core: CG, RTG core: CG) | 0.296 | –
AAACACACTTGGGTTCTAACCTGTTGCCTAT [AAACACACTAG_LTGcore_CT_RTGcore_AT] (site AAACACACTAG) (LTG core: CT, RTG core: AT) | 0.39 | –
AAACACATATGGGTTCTAACCTGTTGCCTAG [AAACACACTAG_LTGcore_TA_RTGcore_CT] (site AAACACACTAG) (LTG core: TA, RTG core: CT) | 0.104 | –
AAACACATATGGGTTCTAACCTGTTGCCTTA [AAACACACTAG_LTGcore_TA_RTGcore_TA] (site AAACACACTAG) (LTG core: TA, RTG core: TA) | 0.146 | –
AAACAGTACTGGGTTCTAACCTGTTGCCTGT [AAACAGTCTAG_LTGcore_AC_RTGcore_AC] (site AAACAGTCTAG) (LTG core: AC, RTG core: AC) | 0.114 | –
AAACAGTAGTGGGTTCTAACCTGTTGCCTAG [AAACAGTCTAG_LTGcore_AG_RTGcore_CT] (site AAACAGTCTAG) (LTG core: AG, RTG core: CT) | 0.0711 | –
AAACAGTCTTGGGTTCTAACCTGTTGCCTCA [AAACAGTCTAG_LTGcore_CT_RTGcore_TG] (site AAACAGTCTAG) (LTG core: CT, RTG core: TG) | 0.601 | –
AAACAGTCTTGGGTTCTAACCTGTTGCCTGC [AAACAGTCTAG_LTGcore_CT_RTGcore_GC] (site AAACAGTCTAG) (LTG core: CT, RTG core: GC) | 1.44 | –
AAACAGTCTTGGGTTCTAACCTGTTGCCTTG [AAACAGTCTAG_LTGcore_CT_RTGcore_CA] (site AAACAGTCTAG) (LTG core: CT, RTG core: CA) | 1.28 | –
AAACAGTTCTGGGTTCTAACCTGTTGCCTAG [AAACAGTCTAG_LTGcore_TC_RTGcore_CT] (site AAACAGTCTAG) (LTG core: TC, RTG core: CT) | 0.0714 | –
AAACATGCGTGGGTTCTAACCTGTTGCCTAG [AAACATGCTAG_LTGcore_CG_RTGcore_CT] (site AAACATGCTAG) (LTG core: CG, RTG core: CT) | 0.0702 | –
AAACATGCTTGGGTTCTAACCTGTTGCCTAA [AAACATGCTAG_LTGcore_CT_RTGcore_TT] (site AAACATGCTAG) (LTG core: CT, RTG core: TT) | 0.344 | –
AAACATGCTTGGGTTCTAACCTGTTGCCTCC [AAACATGCTAG_LTGcore_CT_RTGcore_GG] (site AAACATGCTAG) (LTG core: CT, RTG core: GG) | 0.177 | –
AAACATGCTTGGGTTCTAACCTGTTGCCTGG [AAACATGCTAG_LTGcore_CT_RTGcore_CC] (site AAACATGCTAG) (LTG core: CT, RTG core: CC) | 0.713 | –
AAACATGGATGGGTTCTAACCTGTTGCCTAG [AAACATGCTAG_LTGcore_GA_RTGcore_CT] (site AAACATGCTAG) (LTG core: GA, RTG core: CT) | 0.0906 | –
AAACATGTATGGGTTCTAACCTGTTGCCTTA [AAACATGCTAG_LTGcore_TA_RTGcore_TA] (site AAACATGCTAG) (LTG core: TA, RTG core: TA) | 0.0913 | –
ACGGGACATTGGGTTCTAACCTGTTGCAGAT [ACGGGACCTCT_LTGcore_AT_RTGcore_AT] (site ACGGGACCTCT) (LTG core: AT, RTG core: AT) | 0.134 | –
ACGGGACCGTGGGTTCTAACCTGTTGCAGCG [ACGGGACCTCT_LTGcore_CG_RTGcore_CG] (site ACGGGACCTCT) (LTG core: CG, RTG core: CG) | 0.086 | –
ACGGGACCTTGGGTTCTAACCTGTTGCAGAA [ACGGGACCTCT_LTGcore_CT_RTGcore_TT] (site ACGGGACCTCT) (LTG core: CT, RTG core: TT) | 0.387 | –

Sequence | recombinant barcode read abundance (log10) [1] | recombinant barcode read abundance (log10) [2]
ACGGGACCTTGGGTTCTAACCTGTTGCAGCT [ACGGGACCTCT_LTGcore_CT_RTGcore_AG] (site ACGGGACCTCT) (LTG core: CT, RTG core: AG) | 1.07 | –
ACGGGACCTTGGGTTCTAACCTGTTGCAGGC [ACGGGACCTCT_LTGcore_CT_RTGcore_GC] (site ACGGGACCTCT) (LTG core: CT, RTG core: GC) | 0.944 | –
ACGGGACTATGGGTTCTAACCTGTTGCAGTA [ACGGGACCTCT_LTGcore_TA_RTGcore_TA] (site ACGGGACCTCT) (LTG core: TA, RTG core: TA) | 0.0155 | –
AGGAGGTAATGGGTTCTAACCTGTTGCCTTT [AGGAGGTCTAG_LTGcore_AA_RTGcore_AA] (site AGGAGGTCTAG) (LTG core: AA, RTG core: AA) | 0.0693 | –
AGGAGGTAGTGGGTTCTAACCTGTTGCCTCT [AGGAGGTCTAG_LTGcore_AG_RTGcore_AG] (site AGGAGGTCTAG) (LTG core: AG, RTG core: AG) | 0.0957 | –
AGGAGGTATTGGGTTCTAACCTGTTGCCTAG [AGGAGGTCTAG_LTGcore_AT_RTGcore_CT] (site AGGAGGTCTAG) (LTG core: AT, RTG core: CT) | 0.214 | –
AGGAGGTCCTGGGTTCTAACCTGTTGCCTAG [AGGAGGTCTAG_LTGcore_CC_RTGcore_CT] (site AGGAGGTCTAG) (LTG core: CC, RTG core: CT) | 0.336 | –
AGGAGGTCGTGGGTTCTAACCTGTTGCCTAG [AGGAGGTCTAG_LTGcore_CG_RTGcore_CT] (site AGGAGGTCTAG) (LTG core: CG, RTG core: CT) | 0.0327 | –
AGGAGGTCTTGGGTTCTAACCTGTTGCCTCC [AGGAGGTCTAG_LTGcore_CT_RTGcore_GG] (site AGGAGGTCTAG) (LTG core: CT, RTG core: GG) | 0.0685 | –
AGGAGGTCTTGGGTTCTAACCTGTTGCCTCT [AGGAGGTCTAG_LTGcore_CT_RTGcore_AG] (site AGGAGGTCTAG) (LTG core: CT, RTG core: AG) | 1.02 | –
AGGAGGTCTTGGGTTCTAACCTGTTGCCTGA [AGGAGGTCTAG_LTGcore_CT_RTGcore_TC] (site AGGAGGTCTAG) (LTG core: CT, RTG core: TC) | 0.643 | –
AGGAGGTCTTGGGTTCTAACCTGTTGCCTTC [AGGAGGTCTAG_LTGcore_CT_RTGcore_GA] (site AGGAGGTCTAG) (LTG core: CT, RTG core: GA) | 0.107 | –
AGGAGGTGCTGGGTTCTAACCTGTTGCCTAG [AGGAGGTCTAG_LTGcore_GC_RTGcore_CT] (site AGGAGGTCTAG) (LTG core: GC, RTG core: CT) | 0.292 | –
AGGAGGTGCTGGGTTCTAACCTGTTGCCTGC [AGGAGGTCTAG_LTGcore_GC_RTGcore_GC] (site AGGAGGTCTAG) (LTG core: GC, RTG core: GC) | 0.911 | –
AGGAGGTTATGGGTTCTAACCTGTTGCCTTA [AGGAGGTCTAG_LTGcore_TA_RTGcore_TA] (site AGGAGGTCTAG) (LTG core: TA, RTG core: TA) | 0.209 | –
AGGAGGTTCTGGGTTCTAACCTGTTGCCTAG [AGGAGGTCTAG_LTGcore_TC_RTGcore_CT] (site AGGAGGTCTAG) (LTG core: TC, RTG core: CT) | 0.0562 | –
AGGAGGTTTTGGGTTCTAACCTGTTGCCTAA [AGGAGGTCTAG_LTGcore_TT_RTGcore_TT] (site AGGAGGTCTAG) (LTG core: TT, RTG core: TT) | 0.218 | –
AGGCCTCATTGGGTTCTAACCTGTTGCCTAT [AGGCCTCCTAG_LTGcore_AT_RTGcore_AT] (site AGGCCTCCTAG) (LTG core: AT, RTG core: AT) | 0.0616 | –
AGGCCTCCGTGGGTTCTAACCTGTTGCCTAG [AGGCCTCCTAG_LTGcore_CG_RTGcore_CT] (site AGGCCTCCTAG) (LTG core: CG, RTG core: CT) | 0.0631 | –
TTGTGAGCTTGGGTTCTAACCTGTTGCGG (site TTGTAAGCTCG) | – | 0.037
TTGTGAGCTTGGGTTCTAACCTGTTGCGG (site TTGTGAGCTCC) | – | 1.15
